Tests used:
Format in all cases: physicochemical
[1] = Influence of heating time on decomposition (FDCA in water at 130° C.); settings: for appearance of solution on heating (decomposition): deionised water
Experimental: In a reaction vessel, 60 mg of FDCA was dissolved over time in 3 ml of deionised water at a temperature of 130° C. On heating, around 5 minutes was needed to allow the solid to dissolve. Following this, samples were taken at 12, 15, 18 and 21 minutes. The samples were photographed at these intervals (FIG. 4).

[2] = Solubility of FDCA in water at different temperatures; settings: water as solvent, temperatures beyond 130° C.
Description: The inventors realized that it is desirable for FDCA crystallization to use superheating for dissolving FDCA. FDCA may show a significant increase in solubility above superheating conditions. […] The byproduct is colored and its formation is therefore undesirable both in view of purity and color.

[3] = Influence of heating time on color of the precipitate after cooling; settings: 200 mg FDCA in 2 mL H2O, 140-180° C., 5-15 min, prolonged heating
Experimental: In another experiment, the influence of heating time on the color of the precipitate after cooling was investigated. A total of nine samples were prepared by mixing 200 mg of FDCA in 2 mL H2O. [table]

O=C(O)c1ccc(C(=O)O)o1 [FDCA, 2,5-furandicarboxylic acid]
time needed to allow the solid to dissolve ([1]; 60 mg FDCA in 3 ml deionised water): around 5 minutes | appearance of solution on heating (decomposition) ([1]; after 12 minutes): a light solution is observed | appearance of solution on heating (decomposition) ([1]; after 15 minutes): some black solid by-products started to form | appearance of solution on heating (decomposition) ([1]; after 18 minutes): clearly darker brown in color | solubility of FDCA [2]: increases dramatically | by-product formation after heating and cooling [3]: formation of black solid by-products
